Measured values reported in patent publication US10166237B2, “Compounds and methods for inducing chondrogenesis” (The Scripps Research Institute, priority 2011, dated 2019).

Tests used:
hMSCs = assay: type II collagen expression in hMSC cultures (18 day assay); assay type: cell-based, human; conditions: for EC50: Homo sapiens
Method: The chondrogenic differentiation event was initiated quickly even though a fully differentiated chondrocyte phenotype cannot be assessed prior to 14 days in culture. In an 18 day assay, compound treatment was only required for the first 48 hrs and followed by removal and replacement of the media (in the absence of stimuli, FIG. 2B). The promotion of chondrogenic differentiation was not altered or enhanced upon longer treatment with the stimuli (data not shown).
(§1) Primary hMSCs were plated (10,000/well) in 384-well plates and cultured for 18 days. The cells were fixed with 4% formalin, permeabilized with triton (0.5%), digested with 0.5 mg/ml collagenase II to unwind the collagen fibrils, and then immunostained with an antibody recognizing type II collagen. DAPI (2 μg/ml) was added to visualize the nuclei. The chondrogenic nodules stained positive for type II collagen but lacked expression of type X collagen and osteocalcin, markers for chondrocyte hypertrophy and osteoblasts, respectively (not shown). 10,000 hMSCs (passages 3-5) were plated in Greiner 384-well low-bottom plates on day 1. The cells were allowed to adhere and stimulated for 48 hrs (days 2-3) with the indicated stimuli in MSC growth media (Millipore). The media was then removed and replaced with serum-free DMEM for an additional 16 days. This media was replenished on days 10 and 15 of the assay. Primary bovine chondrocytes were isolated from the articular surfaces from mature knees. After one week of culture, 8,500 cells were trypsinized and plated in Greiner 384-well white clear-bottom plates in growth media. […] 20 μl of the supernatant was mixed with 20 μl of the Greiss reagent and quantitated at 540 nm as described by the Promega kit instructions. Bovine cartilage explants (cut in circular explants in a 96 well plate) were cultured in the presence of 20 ng/ml TNFα and 10 ng/ml oncostatin M to induce GAG release for 72 hours (FIG. 2D). PRO1 was added at the indicated concentrations during the entire 72 hrs. […] Parafin sections were hydrated, incubated in low pH Antigen unmasking solution (Vector) at 90 C for 10 minutes, permeabilized with 0.1% collagenase II (only for the sections stained with type II collagen) for 10 minutes, blocked with CAS block for 10 minutes and then incubated with the primary antibody (type II collagen, aggrecan or Timp1) antibody (Abcam) overnight at 4 C. The antigens were visualized through standard ABC detection methods and developed with DAB. Representative of 3 sections stained/treatment group (independent experiments).

[1] = tested on: human mesenchymal stem cells (hMSCs); assay: chondrogenic nodule formation by hMSCs (high throughput screen); assay type: cell-based; conditions: Homo sapiens, Mesenchymal stem cells; first value of the cell (before the slash); read-out: CHONDROGENIC μM EC50
Method: The primary screening assay was based upon the development of chondrogenic nodules. Chondrocytes can grow in monolayer in vitro, but to more closely mimic their native environment in the joint, the cells are routinely cultured in non-adherent conditions such as in pellet cultures or alginate bead suspensions.
In the actual screen of a library of 22,000 structurally diverse heterocycles, 10^4 primary hMSCs were plated in 384 well plates in serum free DMEM. The cells were treated with 5 μM of each compound and incubated for 4 days. […] To facilitate high throughput imaged-based detection, the chondrogenic nodules were stained with […]. The Nile Red stained nodules were quantified on an Acumen eX3 (high content imaging device) by excitation with a 488 laser for rapid detection of the nodules.
Primary hMSCs grown in a 96 well Greiner plates (50,000/well) were incubated for 4 days in the presence of the 5 uM of each DMSO or 100 nM of PRO1. On day 4, the cells were fixed with 4% formalin for 10 minutes, washed and stained with 1 μg/ml of Rhodamine B for 2 hours at room temperature.

[2] = tested on: primary bovine chondrocytes; assay: inhibition of cytokine-induced nitric oxide release (Greiss reaction); assay type: cell-based; conditions: Bos taurus, Chondrocyte; second value of the cell (after the slash); TNFα and oncostatin M, 48 hours; read-out: NO INHIBTION μM IC50
Description: (§2) In the screen, hMSCs were used as a surrogate to future targeting of the resident MSCs with the cartilage joint. It was in that setting upon which we identified PRO1. In a joint injury, the primary cell type a therapeutic would have contact with is the chondrocyte. Although cartilage or chondrocyte-targeted screening has not lead to the development of a successful drug modifying osteoarthritis drug (DMOAD) to date, it is believed that a stem cell-based therapeutic would protect and even repair the existing chondrocytes. Therefore, protection of the articular chondrocytes and cartilage from a mature bovine knee was assessed. PRO1 and its analogues were incubated with primary bovine chondrocytes or cartilage explants cultures grown in the presence of TNFα and oncostatin M to mimic the cytokine-induced damage that can occur during OA. In the presence of the cytokine cocktail, in vitro cultured primary chondrocytes released 4-5 fold more nitric oxide (NO) than the untreated chondrocytes (50 μM vs 10 μM) as measured by the Greiss reaction. In cells treated with the cytokine cocktail and PRO1, the small molecule could effectively block the release of NO by up to 70% FIG. 2C). Similarly, in ex vivo treated cartilage explants, cytokine-induced release of glycosaminoglycans (GAG) was reduced by up to 60% by PRO1 (FIG. 2D). Finally, hMSC were grown in pellet culture for 21 days.
as §1

[3] = tested on: bovine cartilage explants; assay: cytokine-induced GAG release from cartilage explants ex vivo; assay type: cell-based; conditions: 1 μM (or less); compared with PRO1
Description: as §2, with “In cells treated with the cytokine cocktail and PRO1, the small molecule could effectively block the release of NO by up to 70% FIG. 2C). Similarly, in ex vivo treated cartilage explants, cytokine-induced release of glycosaminoglycans (GAG) was reduced by up to 60% by PRO1 (FIG. 2D). Finally, hMSC were grown in pellet culture for 21 days.” left out
Primary hMSCs were plated (10,000/well) in 384-well plates and cultured for 18 days. […] 20 μl of the supernatant was mixed with 20 μl of the Greiss reagent and quantitated at 540 nm as described by the Promega kit instructions. […]

| Molecule | EC50 (hMSCs) [µM] | EC50 [1] [µM] | IC50 [2] [µM] | induction of chondrogenic differentiation of hMSCs (hMSCs; compared with known inducers TGFβ3, BMP7 or BMP2, FIG. 2B) | chondro-protective activities [3] |
| --- | --- | --- | --- | --- | --- |
| O=C(O)c1cc(F)ccc1C(=O)Nc1ccc(-c2ccccc2)cc1 [AKT-F] | > 10 | > 10 | > 10 | – | – |
| Cc1ccc(C(=O)Nc2ccc(-c3ccccc3)cc2)c(C(=O)O)c1 [AKT-Me] | > 10 | > 10 | > 10 | – | – |
| CCNC(=O)c1ccccc1C(=O)O [AKT-NHEt] | > 10 | 2.01 | > 10 | – | – |
| CNC(=O)c1ccccc1C(=O)O [AKT-NHMe] | 0.24 | 2.7 | 0.0046 | – | – |
| [N-]=[N+]=Nc1ccc(C(=O)NCCCNC(=O)c2ccccc2C(=O)NNC(=O)CCOCCC2SCC3NC(=O)NC32)c(O)c1 (centres unmarked) [AKT-azide] | 0.654 | – | 0.12 | – | – |
| CC(C)CNC(=O)c1ccccc1C(=O)Nc1ccc(-c2ccccc2)cc1 [AKT-iPr] | 6.98 | 0.0015 | > 10 | – | – |
| Cc1cncc(NC(=O)c2ccccc2C(=O)O)c1 [Compound L5] | > 10 | 0.6 | 2.4 | – | – |
| O=C(O)c1cc(S(=O)(=O)c2ccc(C(=O)Nc3ccc(-c4ccccc4)cc3)c(C(=O)O)c2)ccc1C(=O)Nc1ccc(-c2ccccc2)cc1 [LK4] | 33.3 | 3.8 | > 10 | – | – |
| O=C(O)c1ccccc1C(=O)Nc1ccc(Nc2ccccc2)cc1 [LK7] | > 10 | > 10 | > 10 | – | – |
| Cc1ccc(C(=O)Nc2ccc(C#N)cc2)cc1 [LK20b] | > 10 | 0.014 | > 10 | – | – |
| O=C(O)c1cc(O)ccc1C(=O)Nc1ccc(-c2ccccc2)cc1 [LK22b, 2-([1,1′-biphenyl]-4-ylcarbamoyl)-5-hydroxybenzoic acid] | > 10 | 0.0046 | > 10 | – | – |
| O=C(O)c1ccccc1C(=O)Nc1ncc(-c2ccc(F)c(F)c2)s1 [LK35] | > 10 | > 10 | 0.03 | – | – |
| COC(=O)c1ccccc1C(=O)Nc1ccc(-c2ccccc2)cc1 [LK55b, Methyl 2-([1,1′-biphenyl]-4-ylcarbamoyl)benzoate] | – | 0.124 | 0.234 | – | – |
| O=C(O)c1ccccc1C(=O)Nc1ccc([N+](=O)[O-])cn1 [LK59, 2-((5-nitropyridin-2-yl)carbamoyl)benzoic acid] | – | 0.371 | 0.491 | – | – |
| Cc1ccc(NC(=O)c2ccccc2C(=O)O)c(C(=O)O)c1 [LK60, 2-(2-carboxybenzamido)-5-methylbenzoic acid] | – | 0.014 | 1.25 | – | – |
| CN1C(=O)c2ccc(NC(=O)c3ccccc3C(=O)O)cc2C1=O [LK61] | – | 0.052 | 1.69 | – | – |
| O=C(O)c1ccccc1C(=O)Nc1ccc2c(c1)OCO2 [LK62, 2-(benzo[1,3]dioxol-5-ylcarbamoyl)benzoic acid] | – | 3.36 | 0.145 | – | – |
| O=C(O)c1ccc(NC(=O)c2ccccc2C(=O)O)cc1Cl [LK63, 4-(2-carboxybenzamido)-2-chlorobenzoic acid] | – | 0.126 | 0.0298 | – | – |
| C[C@@H](C(=O)Nc1ccc(Cl)cn1)N1Cc2ccccc2C1=O [SMA-1*] | 0.37 | > 10 | 0.04 | – | – |
| TGFβ3: "known inducers of chondrogenic differentiation (TGFβ3, BMP7 or BMP2)" (protein, UniProt P10600 301-412, looked up) Transforming growth factor …: ALDTNYCFRNLEENCCVRPLYIDFRQDLGWKWVHEPKGYYANFCSGPCPYLRSADTTHSTVLGLYNTLNPEASASPCCVPQDLEPLTILYYVGRTPKVEQLSNMVVKSCKCS | – | – | – | – | did not have the same degree of chondro-protective activities |

More lines, main results first:

| EC50 (hMSCs) [µM] | EC50 [1] [µM] | Molecule | IC50 [2] [µM] | induction of chondrogenic differentiation of hMSCs (hMSCs; compared with known inducers TGFβ3, BMP7 or BMP2, FIG. 2B) | chondro-protective activities [3] |
| --- | --- | --- | --- | --- | --- |
| 8.46 | 0.04 | O=C(O)c1ccccc1C(=O)Nc1ccc(CO)cc1 [AKT-CH2OH, 2-((4-(hydroxymethyl)phenyl)carbamoyl)benzoic acid] | 0.27 | – | – |
| 0.108 | 0.137 | N#Cc1ccc(NC(=O)c2ccccc2C(=O)O)cc1 [AKT-CN] | 0.03 | more potent and efficient | – |
| > 10 | > 10 | COc1ccc(NC(=O)c2ccccc2C(=O)O)cc1 [Compound L2, 2-((4-methoxyphenyl)carbamoyl)benzoic acid] | – | – | – |
| 11.1 | 9.5 | O=C(O)c1ccccc1C(=O)Nc1ccc(C(F)(F)F)cc1 [Compound L4, 2-((4-(trifluoromethyl)phenyl)carbamoyl)benzoic acid] | 22.1 | – | – |
| > 10 | > 10 | Cc1ccc(NC(=O)c2ccccc2C(=O)O)cn1 [Compound L6] | > 10 | – | – |
| > 10 | > 10 | O=C(O)c1ccccc1C(=O)Nc1ccc(I)cc1 [Compound L11a, 2-((4-iodophenyl)carbamoyl)benzoic acid] | > 10 | – | – |
| > 10 | 0.125 | O=C(O)c1ccccc1C(=O)Nc1ccc(CCO)cc1 [Compound L11c, 2-((4-(2-hydroxyethyl)phenyl)carbamoyl)benzoic acid] | > 10 | – | – |
| > 10 | > 10 | N#CCc1ccc(NC(=O)c2ccccc2C(=O)O)cc1 [Compound L13] | > 10 | – | – |
| > 10 | 9.1 | O=C(O)c1ccccc1C(=O)Nc1ccc(N2CCOCC2)cc1 [LK6, 2-((4-morpholinophenyl)carbamoyl)benzoic acid] | > 10 | – | – |
| > 10 | 9.1 | NS(=O)(=O)c1ccc(NC(=O)c2ccccc2C(=O)O)cc1 [LK8] | > 10 | – | – |
| > 10 | 0.12 | O=C(O)c1ccccc1C(=O)Nc1ccc(CCCc2ccccn2)cc1 [LK15, 2-((4-(3-(pyridin-2-yl)propyl)phenyl)carbamoyl)benzoic acid] | > 10 | – | – |
| 0.05 | 0.0015 | O=C(O)c1ccccc1C(=O)Nc1ccc(-c2ccccc2)cc1 [LK18b] | 2.7 | – | – |
| – | 0.398 | O=C(O)c1ccc(CNC(=O)c2ccccc2C(=O)O)cc1 [LK64] | 0.981 | – | – |
